A value given as a limit tells only on which side of the number the result lay.

The first assay deals with beta-TC6 cells. The experiment in a line: Insulin HTRF assay (relative activity Ar) in beta-TC6 cells. Type of assay: cell-based, mouse. To be noted: Mus musculus, Beta-TC6, 4 h, insulin HTRF, supernatant of beta-TC6 cells, incubation with test compound at 37°C for 2, 3, 4h; read-out: Ar (relative activity). The source says:
For further screening of compounds derived from compounds described above for their ability to regulate insulin release an insulin HTRF® (Homogeneous Time-Resolved Fluorescence; Cisbio International, France) was used. This assay is based on two antibodies against insulin binding to different epitopes of insulin. One of these antibodies is coupled to Europium (Ab-Eu-Cryptate) and the other one to the fluorophore XL665 (Ab-XL665). If the insulin is secreted into the supernatant of cell culture, both antibodies can bind to insulin and come therefore into close proximity, which allows upon excitation that energy transfer between (FRET) the long-life fluorescent donor Europium (cryptate) and the acceptors XL665. FRET increases proportionally with insulin concentration.
The automated assay protocol is as follows: • On day 1, 15k beta-TC6 cells per well were seeded for 24 or 48 h in 50 µL complete medium. On day 2 or respective on day 3, the medium is removed and cells are washed with 60 µL 1xPBS and 20 µL induction buffer is added using BioTek washer. Subsequently, 10 µL Sunitininb (5 -µM f.c.) or the test compound in induction buffer; 0.5% f.c. DMSO (CyBi-well) is transferred to the cells. The cells are then incubated at 37°C for 2, 3, 4h.
First 10 µL supernatant is transferred from the cell plates in HTRF plates (CyBi-well). 10 µL of 0, 1, 2, and 4 ng/ml insulin standard controls in assay medium is used as a control. To each well 10 µL of combined 1:25 Ab-XL665 (Acc) and 1:20 Ab-Eu-Cryptate (WellMate) are added and incubated for 120 min at RT in the dark. Finally HTRF is measured on ViewLux ultra high throughput microplate imager (PerkinElmer).
The evaluation software DataFactoty derives relative activities Ar according to the following equation: Ar = (V-R(0%control))/(R(100%control) -R0%control)) × 100 [formula]
The activity of the compounds was classified according to their Ar (relative activity) into the following ranges: […]
Background: TR-FRET usually uses a lanthanide donor and a delayed reading to cut background.
Consider `COc1cc(Nc2nccc3[nH]c(-c4ccc(O)cc4)nc23)cc(OC)c1OC` [Compound 364, 4-[4-(3,4,5-trimethoxyanilino)-1H-imidazo[4,5-c]pyridin-2-yl]phenol], for which the Emax lay in the range of 50 to 100%.
On the same count and under the same terms, as for `COCCNc1nc2cnc(-c3cnn(C)c3)cc2n1C` [Compound 651, N-(2-methoxyethyl)-1-methyl-6-(1-methylpyrazol-4-yl)imidazo[4,5-c]pyridin-2-amine], the figure is 50 to 100%; as for `COCCNc1nc2cnc(-c3ccc(OC)cc3C)cc2n1C` [Compound 859, N-(2-methoxyethyl)-6-(4-methoxy-2-methyl-phenyl)-1-methyl-imidazo[4,5-c]pyridin-2-amine], 30 to 50%.
`CNc1nc2cnc(Nc3ccc(C(N)=O)cc3)cc2n1-c1cccc(C(F)(F)F)c1` [Compound 542, 4-[[2-(methylamino)-1-[3-(trifluoromethyl)phenyl]imidazo[4,5-c]pyridin-6-yl]amino]benzamide]: the Emax lay in the range of 30 to 50%.
On the same count and under the same terms, then `Oc1cccc(Nc2nccc3[nH]c(-c4ccccc4)nc23)c1` [Compound 337, 3-[(2-phenyl-1H-imidazo[4,5-c]pyridin-4-yl)amino]phenol], with 30 to 50%; and `CNc1nc2cnc(-c3ccc4c(c3)OCO4)cc2n1Cc1ccccc1` [Compound 791, 6-(1,3-benzodioxol-5-yl)-1-benzyl-N-methyl-imidazo[4,5-c]pyridin-2-amine], with 0 to 30%.
For the compound `COc1ccc(Nc2cc3c(cn2)cc(-c2cccc(N(C)C(C)=O)c2)n3C)cc1` [Compound 166, N-[3-[6-(4-methoxyanilino)-1-methyl-pyrrolo[3,2-c]pyridin-2-yl]phenyl]-N-methyl-acetamide], the Emax is 30 to 50%.
Take `Cn1c(NCc2ccccc2)nc2cnc(-c3cccc(C(=O)O)c3)cc21` [Compound 748, 3-[2-(benzylamino)-1-methyl-imidazo[4,5-c]pyridin-6-yl]benzoic acid]: the Emax lay in the range of 0 to 30%.
As to `CNc1nc2cnc(Nc3ccc(C(N)=O)cc3)cc2n1Cc1ccc(OC)c(OC)c1` [Compound 664, 4-[[1-[(3,4-dimethoxyphenyl)methyl]-2-(methylamino)imidazo[4,5-c]pyridin-6-yl]amino]benzamide], the Emax fell in the range of 50 to 100%.
For the compound `CS(=O)(=O)c1ccc(Nc2nccc3[nH]c(-c4ccccc4)cc23)cc1` [Compound 324, N-(4-methylsulfonylphenyl)-2-phenyl-1H-pyrrolo[3,2-c]pyridin-4-amine], the Emax lay in the range of 50 to 100%.
For `Cn1c(NCc2ccccc2F)nc2cnc(-c3ccc(F)cc3)cc21` [Compound 657, 6-(4-fluorophenyl)-N-[(2-fluorophenyl)methyl]-1-methyl-imidazo[4,5-c]pyridin-2-amine], the Emax fell in the range of 30 to 50%.
For the compound `CN(C)C(=O)c1ccc(Nc2cc3[nH]c(-c4ccccn4)cc3cn2)cc1` [Compound 70, N,N-dimethyl-4-[[2-(2-pyridyl)-1H-pyrrolo[3,2-c]pyridin-6-yl]amino]benzamide], the Emax was above 100%.
Turning to `COc1cc(Nc2nccc3c2cc(-c2ccc(C(=O)N(C)C)cc2)n3C)cc(C(F)(F)F)c1` [Compound 220, N,N-dimethyl-4-[1-methyl-4-(3-methoxy-5-(trifuloromethyl)phenylamino)pyrrolo[3,2-c]pyridin-2-yl]benzamide], the Emax lay in the range of 0 to 30%.
Take `CN(C)C(=O)c1ccc(-c2cc3cnc(Nc4cccc(NS(C)(=O)=O)c4)cc3[nH]2)cc1` [Compound 39, 4-[6-[3-(methanesulfonamido)anilino]-1H-pyrrolo[3,2-c]pyridin-2-yl]-N,N-dimethyl-benzamide]: the Emax is 50 to 100%.
On to `Cn1c(NCC2CC2)nc2cnc(Nc3ccc4c(c3)OCO4)cc21` [Compound 598, N6-(1,3-benzodioxol-5-yl)-N2-(cyclopropylmethyl)-1-methyl-imidazo[4,5-c]pyridine-2,6-diamine], for which the Emax was in the range of 30 to 50%.
As for `Oc1ccc(Nc2nccc3[nH]c(-c4ccccc4)cc23)cc1` [Compound 317, 4-[(2-phenyl-1H-pyrrolo[3,2-c]pyridin-4-yl)amino]phenol], the Emax was 50 to 100%.
The same measure, in the same setting: as for `COc1ccc(Nc2nccc3[nH]c(-c4cccc(OC)c4)nc23)cc1` [Compound 372, 2-(3-methoxyphenyl)-N-(4-methoxyphenyl)-1H-imidazo[4,5-c]pyridin-4-amine], the figure is 50 to 100%; as for `CC(=O)Nc1ccc(Nc2cc3c(cn2)nc(-c2ccccc2)n3C)cc1` [Compound 702, N-[4-[(1-methyl-2-phenyl-imidazo[4,5-c]pyridin-6-yl)amino]phenyl]acetamide], 50 to 100%; as for `COCCNc1nc2cnc(Nc3ccc(NC(C)=O)cc3)cc2n1C` [Compound 646, N-[4-[[2-(2-methoxyethylamino)-1-methyl-imidazo[4,5-c]pyridin-6-yl]amino]phenyl]acetamide], 50 to 100%.
Still for that read-out and setting: as for `CN1CCN(c2ccc(Nc3cc4c(cn3)cc(-c3cnn(C)c3)n4C)cc2)CC1` [Compound 133, 1-methyl-N-[4-(4-methylpiperazin-1-yl)phenyl]-2-(1-methylpyrazol-4-yl)pyrrolo[3,2-c]pyridin-6-amine], the figure is 50 to 100%; as for `Cn1c(NCC2CCCO2)nc2cnc(Nc3cccc(Cl)c3)cc21` (centres unmarked) [Compound 642, N6-(3-chlorophenyl)-1-methyl-N2-(tetrahydrofuran-2-ylmethyl)imidazo[4,5-c]pyridine-2,6-diamine], 50 to 100%.
Consider `COc1cc(Nc2nccc3[nH]c(-c4cccc(F)c4)nc23)cc(OC)c1OC` [Compound 402, 2-(3-fluorophenyl)-N-(3,4,5-trimethoxyphenyl)-1H-imidazo[4,5-c]pyridin-4-amine], for which the Emax fell in the range of 30 to 50%.
As for `COc1ccc(-c2nc3c(Nc4cccc(OC)c4)nccc3[nH]2)cc1` [Compound 390, N-(3-methoxyphenyl)-2-(4-methoxyphenyl)-1H-imidazo[4,5-c]pyridin-4-amine], the Emax was in the range of 30 to 50%.
`CNc1nc2cnc(Nc3ccccc3)cc2n1Cc1ccc(OC)c(OC)c1` [Compound 667, 1-[(3,4-dimethoxyphenyl)methyl]-N2-methyl-N6-phenyl-imidazo[4,5-c]pyridine-2,6-diamine]: the Emax was in the range of 30 to 50%.
Same read-out and setting: as for `COc1cccc(Nc2nccc3[nH]c(-c4cccnc4)nc23)c1` [Compound 358, N-(3-methoxyphenyl)-2-(3-pyridyl)-1H-imidazo[4,5-c]pyridin-4-amine], the figure is 50 to 100%.
For the compound `CN1CCN(c2ccc(Nc3nccc4c3cc(-c3cccc(F)c3)n4C)cc2)CC1` [Compound 209, 2-(3-fluorophenyl)-1-methyl-N-[4-(4-methylpiperazin-1-yl)phenyl]pyrrolo[3,2-c]pyridin-4-amine], the Emax was 50 to 100%.
Still for that read-out and setting: then `CC(=O)Nc1cccc(-c2cc3c(cn2)nc(NCc2cccc(C)c2)n3C)c1` [Compound 580, N-[3-[1-methyl-2-(m-tolylmethylamino)imidazo[4,5-c]pyridin-6-yl]phenyl]acetamide], with 30 to 50%; and `CC(=O)N(C)c1cccc(-c2cc3cnc(Nc4ccccn4)cc3n2C)c1` [Compound 167, N-methyl-N-[3-[1-methyl-6-(2-pyridylamino)pyrrolo[3,2-c]pyridin-2-yl]phenyl]acetamide], with 30 to 50%.

Staying with this assay, now noted: insulin HTRF, supernatant of beta-TC6 cells, incubation with test compound at 37°C for 2, 3, 4h.
On to `CNc1nc2cnc(-c3ccc(N(C)C)cc3)cc2n1-c1ccccc1` [Compound 781, 6-(4-dimethylaminophenyl)-N-methyl-1-phenyl-imidazo[4,5-c]pyridin-2-amine], for which the “Ar (relative activity)” value is recorded as “+++ (50 % ≤ Ar < 100 %)”.

For the origin of these results see patent publication EP2818472A1, “Imidazo[4,5-c]pyridine and pyrrolo[3,2-c]pyridine compounds as G-protein-coupled receptor kinase 5 (GRK5) modulators” (Max-Planck-Gesellschaft zur Förderung der Wissenschaften …, priority 2013, dated 2014).
